Broadly, the melting point is the temperature, or range, at which the solid turns liquid. `Cc1cc(C)c(S(=O)(=O)NC(CNc2ccccc2)C(F)(F)F)c(C)c1` (stereo unspecified) came in with a melting point of 82 to 86 °C.

The compound `CCOC(=O)C1=C(N(C)C)N=C(C)C(C(=O)OCC)C1c1cccc(Cl)c1` (stereo unspecified) came in with a melting point of 79 °C.

With `CCOC(=O)COc1c(C)cc(C(O)(C(F)(F)F)C(F)(F)F)cc1C`, the melting point was 99 to 101 °C.

Compound `O=C1CCC(N2Cc3c(OCc4ccc5ccccc5c4)cccc3C2=O)C(=O)N1` (stereo unspecified) displayed a melting point of 277 to 279 °C.

Turning to `COc1ccc2nc(CN(CCN(Cc3ccc4cc(OC)ccc4n3)Cc3ccc4cc(OC)ccc4n3)Cc3ccc4cc(OC)ccc4n3)ccc2c1`, the melting point was 168 to 170 °C.

`O=[N+]([O-])c1cccc(C2Nn3cc(-c4ccc(-c5ccccc5)cc4)nc3S2)c1` (stereo unspecified): the melting point fell in the range of 263 to 265 °C.

Take `O=C(CBr)Nc1coc2ccccc2c1=O`: the melting point is 198 °C.

As for `Nc1cc2nc(O)c(O)nc2c2c1CCCC2`, the melting point is above 300 °C.

On to `CN(C)C=Nc1nc2c(nnn2C2CC(O)C(CO)O2)c(=O)[nH]1` (stereo unspecified), for which the melting point came to 236 °C.

In turn, `CC1NC(=O)NN=C1c1ccc(Br)cc1` (stereo unspecified) gave a melting point of 214 to 215 °C.

The compound `CC#CN(NC(=O)c1ccc(Cl)c(S(N)(=O)=O)c1)c1ccccc1` had a melting point of 168 to 170 °C.

Regarding `CCOC(=O)c1ncn2c1CN(C)C(=O)c1sccc1-2`, the melting point fell in the range of 160 to 162 °C.

As for `CCC(CCCCc1ccccc1)(CC(=O)O)S(=O)(=O)c1ccc(OC)cc1` (stereo unspecified), the melting point is 44 to 46 °C.

`O=C1C(=O)c2ccccc2C2=C1SCC1(CCC(O)CC1)O2` (stereo unspecified): the melting point was 166 to 168 °C.

`N#Cc1nc(N)c(-c2ccccc2)nc1C#N` gave a melting point of 167 to 168 °C.

Compound `O=C(c1cccs1)c1cnn2c(-c3cccc(NC(=O)C4CCCC4)c3)ccnc12` displayed a melting point of 209 to 210 °C.

Compound `CC(=O)OC1CSC(Oc2cncc(S(=O)(=O)c3ccccc3)c2)C(OC(C)=O)C1OC(C)=O` (stereo unspecified) gave a melting point of 97 to 99 °C.

The compound `Fc1ccc(-c2[nH]nc(C3=CCN4CCCC4C3)c2-c2ccncc2)cc1` (stereo unspecified) returned a melting point of 209 to 214 °C.

In the case of `COc1cccc(-n2c(=O)n(OCc3ccccc3)c(=O)c3cc(F)c(F)cc32)c1`, the melting point lay within 157 to 158 °C.

Regarding `Oc1ccc(Oc2ncc(Cl)cc2Cl)cc1`, the melting point fell in the range of 122 to 124 °C.

`O=C(N[C@H](Cc1ccccc1C(F)(F)F)[C@@H](O)c1ccc(F)cc1)c1ccc(F)c2ccccc12` (racemic) had a melting point of 200 to 201 °C.

Turning to `Cc1oc(-c2ccccc2)nc1CCOc1cccc(OC(C)(C)C(=O)O)c1`, the melting point lay within 140 to 141 °C.

As to `CCCCCC1CCC(c2ccc(CC(=O)OC)cc2)CC1` (stereo unspecified), the melting point lay in the range of 46 to 47 °C.

Compound `NC(=O)NC(=S)NC(=O)c1ccc(Cl)cc1` registered a melting point of 155 to 158 °C.

`CC(C)(C)OC(=O)N1C[C@@H]([C@H]2COC(C)(C)O2)CC1=O`: the melting point lay in the range of 106 to 108 °C.

Compound `CC(C)(O)Cc1cccc(C(F)(F)F)c1` came in with a melting point of 55 to 56 °C.

`C=CCn1c(=O)c2c(nc(/C=C/c3cc(OC)c(OC)c(OC)c3)n2C)n(CC=C)c1=O`: the melting point lay in the range of 189 to 191 °C.

On to `CCCCCS(=O)(=O)NC(=O)/C=C/c1ccc(OC(COCC)COCC)cc1Oc1ncc(C(F)(F)F)cc1Cl`, for which the melting point lay in the range of 83 to 85.5 °C.

Compound `O=Cc1ccc(OCc2ccccc2)c(F)c1` came in with a melting point of 94 to 95 °C.

`O=S1(=O)N=CN(C2CCCCC2)c2ccc(Cl)cc21` gave a melting point of 209 to 211 °C.

For `N#CCc1cc(F)cc(Cc2nc3c(F)c(F)cc(F)c3s2)c1`, the melting point was in the range of 91 to 94 °C.

As to `O=C(Nc1ccccc1)c1cc2ccccc2s1`, the melting point turned out to be 188 °C.

Turning to `CCCCOC(=O)N[C@H](C(=O)NCCc1ccc(OCC#Cc2ccc(Cl)cc2)c(OC)c1)C(C)C`, the melting point was 141 to 142 °C.

`CN(C)CCCCN1CCOc2cc3ncc(C#N)c(Nc4ccc(F)c(Cl)c4)c3cc21`: the melting point stood at 105 °C.

`CS(=O)(=O)C(=C1CN(C(c2ccccc2)c2ccccc2)C1)c1ccccc1Cl` showed a melting point of 204 °C.

`CCCCCCCCCCCCNC1=NC(C)(C)N=C(NCc2ccc(S(N)(=O)=O)cc2)N1`: the melting point fell in the range of 188 to 191 °C.

`OCc1cn(-c2ccc(Cl)c(Cl)c2)cn1` had a melting point of 146 to 147 °C.

In turn, `Cc1cc(C=C2SCNC2=O)cc(C(C)(C)C)c1O` returned a melting point of 162 to 165 °C.

`CC1(C)COc2c1cc(C=O)c(O)c2Br`: the melting point lay in the range of 152 to 154 °C.

`OCc1nc2n(n1)-c1ccccc1N(c1ccc(Cl)cc1)C2`: the melting point fell in the range of 190 to 195 °C.

`Cc1ccc(-c2cc3cc(-c4ccccc4)ccc3o2)cc1` registered a melting point of 156 to 158 °C.

On to `COc1cc2[nH]c(N(C)Cc3cccc(OCCO)c3)nc(=O)c2c(OC)c1OC`, for which the melting point is 146 to 148 °C.

In turn, `ONc1cc(Cl)ccc1Cl` gave a melting point of 124 °C.

`Cc1sc2c(c1CCN1CCC(c3noc4cc(F)ccc34)CC1)CCN(C)C2` gave a melting point of 100 to 103 °C.

The compound `CCOC(=O)N(CCCOCCOCCCN(C(=O)OCC)C1CC(C)(C)NC(C)(C)C1)C1CC(C)(C)NC(C)(C)C1` yielded a melting point of 92 to 93 °C.

`Cc1ccc(C23CCC(Cl)(CC2)CC3)cc1` returned a melting point of 105 °C.

In turn, `Cn1cccc1C(=O)c1sc(Nc2ccc3[nH]cnc3c2)nc1N` had a melting point of 284 to 285 °C.

The compound `CCc1nc(-c2ccc(Cl)cc2)c(CCC(=O)O)o1` gave a melting point of 160 to 161 °C.

The compound `COC(=O)c1ccc2cccc(OS(=O)(=O)C(F)(F)F)c2n1` gave a melting point of 77 to 78 °C.

In turn, `CC(C)(C)OC(=O)Nc1ccc(C#Cc2nccs2)cc1N` gave a melting point of 182 °C.

Regarding `C=CCOc1ccc(Cl)c2oc(Cc3ccc(OC)cc3)c(C)c12`, the melting point was in the range of 90 to 93 °C.

On to `CSc1ccc2c(c1)Cc1ccc(C=O)cc1O2`, for which the melting point lay within 122 to 123 °C.

For the compound `O=C(O)[C@@H]1CCCN1C(=S)CCc1ccccc1`, the melting point fell in the range of 86 to 88 °C.

As for `Oc1ccc2c(c1)CCCC(c1ccccc1)=C2c1ccc(OCCCCCSCc2ccccn2)cc1`, the melting point was determined as 159 °C.

As to `Cc1cccc2cc(N3CCN(C)CC3)[nH]c(=O)c12`, the melting point lay within 224 to 225 °C.

On to `Cc1cc2c(cc1Sc1ccc(C(=O)O)c(Cl)c1)C(C)(C)CCC2(C)C`, for which the melting point fell in the range of 202 to 205 °C.

Take `CCC(CC)Nc1nc(C)nc(Oc2c(C)cc(C)cc2C)c1N`: the melting point was 248 to 250 °C.

Compound `O=[N+]([O-])c1ccc(Cl)c(S)c1` displayed a melting point of 267 to 268 °C.

The compound `CO[C@H]([C@@H](C)C(=S)NCCc1ccccc1)[C@@H]1CCCN1C(=O)OC(C)(C)C` had a melting point of 107 to 109 °C.

In the case of `Cc1ccc2c(c1)NC(=O)c1ccccc1O2`, the melting point was in the range of 231 to 232 °C.

Regarding `CCS(=O)CC(=C1NCCCS1)[N+](=O)[O-]` (stereo unspecified), the melting point was 102 to 104 °C.

Turning to `CC12C=CCC1C1CC=C3CC(O)CCC3(CO)C1CC2` (stereo unspecified), the melting point was in the range of 169 to 171 °C.

As to `CC(C)(C)OC(=O)N1CCNC(=O)C1Cc1ccc(F)cc1` (stereo unspecified), the melting point was in the range of 145 to 147 °C.

`Cc1nc2c3c(ccc2n1C)C(=O)N1C(=O)C(C)(C(C)C)N=C31` (stereo unspecified) came in with a melting point of 258 to 263 °C.

`COc1cc(C=C(C)[N+](=O)[O-])c(OC)c(C)c1C` gave a melting point of 76 to 81 °C.

Turning to `Nc1ccc(C23CC(C2)C(=O)N(Cc2ccccc2)C3=O)cc1`, the melting point was 164 to 166 °C.

Turning to `CCc1noc(-c2ncc3[nH]c4c(c3c2COC)CCCC4)n1`, the melting point is 197 to 199 °C.

For `COc1ccc(CSCC(C(=O)O)C(F)(F)F)cc1` (stereo unspecified), the melting point lay in the range of 72 to 74 °C.

Take `CCOC1SCN(c2ccc(Cl)c(Cl)c2)C1=O` (stereo unspecified): the melting point lay within 61 to 65 °C.

Compound `CN(C)S(=O)(=O)Nc1cccc(-c2cccc(-c3nc(-c4ccc(C(F)(F)F)cc4)cc(C(F)(F)F)n3)c2)c1` had a melting point of 113 °C.

Consider `COc1cccc(-c2cc(O)c(SCc3ccccc3)c(=O)o2)c1`, for which the melting point lay in the range of 146 to 147 °C.

As for `Cc1ncn(-c2cc(C)c3[nH]c(=O)ccc3c2)c1[N+](=O)[O-]`, the melting point is 306 to 309 °C.

In turn, `COC(=O)C1=C(Cl)C(=O)CC(c2ccc(Cl)c(OC)c2F)N1` (stereo unspecified) came in with a melting point of 127 to 129 °C.

`Cc1cccc(NC(=O)NCC(=O)N(CC(=O)N2CCc3ccccc32)c2ccccc2)c1` came in with a melting point of 190 °C.

On to `NS(=O)(=O)c1ccc(NC(=O)NC2CCCC2)cc1`, for which the melting point is 224 to 226 °C.

`NC(=C[N+](=O)[O-])NCc1ccc(Cl)cc1` returned a melting point of 215 to 216 °C.

`CCOC(=O)COc1c(C)cc(C)c2c1CC(Br)C2=O` (stereo unspecified) gave a melting point of 71 to 73 °C.

For `N#CN1CCc2cccc(Cl)c2CC1`, the melting point is 81 to 82 °C.

`CSc1ncc2cc(Oc3ccccc3F)c(=O)n(C)c2n1` registered a melting point of 234 to 236 °C.

`CC(=O)Nc1ccc(-n2nc(C(=O)NC(C)(C)C)c3c2C2CCC3C2)cc1` (stereo unspecified) gave a melting point of 122 to 124 °C.

Compound `CC(C)(C)c1ccn(-c2ccc(C(=O)N3Cc4cccnc4Nc4ccccc43)c(C(F)(F)F)c2)n1` showed a melting point of 136 to 140 °C.

In the case of `CCCn1nc(C)c2nc(C)nc(O)c21`, the melting point lay in the range of 196 to 198 °C.

In turn, `CCNc1c(SC(F)(F)F)c(C)nn1-c1c(Cl)cc(C(F)(F)F)cc1Cl` displayed a melting point of 53 to 54 °C.

`C=CCn1c(C)nc2c3c(c(C(=O)OC)cc21)CCC1(Cc2ccccc2C1)N3` returned a melting point of 142 °C.

The compound `COc1ccccc1NC(=O)c1ccc([N+](=O)[O-])cc1` gave a melting point of 146 to 147 °C.

`COc1ccc(N2CCN(CCC3OCCc4cc(C(N)=O)ccc43)CC2)cc1` (stereo unspecified) returned a melting point of 180 to 182 °C.

`CCOC(=O)COc1ccc(CN2C(=O)C3(COc4cc5c(cc43)OCCO5)c3ccccc32)cc1` (stereo unspecified) gave a melting point of 59 to 61 °C.

For `CC(C)(C)OC(=O)N1CCN(c2ccc3nc(-c4cccs4)cn3n2)CC1`, the melting point was 165 to 167 °C.

On to `Cc1ccc(C)c(C(C)Sc2cc(C)c3ccccc3n2)c1` (stereo unspecified), for which the melting point lay within 84 to 85 °C.

For `CCCCc1cc(C(=O)OC)c(N)s1`, the melting point is 62 to 63 °C.

Turning to `CCCOCCOC(=O)C1=C(C)NC(C)=C(P(=O)(OC(C)C)OC(C)C)C1c1cccc([N+](=O)[O-])c1` (stereo unspecified), the melting point lay within 125 to 126 °C.

The values above are taken from a melting point compilation (Tetko et al.; mined from patent text by program, amines drawn as free bases though some values may be those of a salt).
